Assay results published in US9840478B2 (MERCK SHARP & DOHME CORP., priority 2013, dated 2017).

Tested on: HIV-1 (H9IIIB strain)
Test: Cell-based HIV infection assay using a reporter (Cell-Based), MT4-GFP cells
Conditions: Human immunodeficiency virus 1, MT4-GFP cells infected with HIV-1 H9IIIB; 50% normal human serum; mean of at least two independent experiments; read-out: Cell-based IP
Method in brief: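 MT4-GFP cells (HIV LTR-driven GFP) infected 24 h with HIV-1 H9IIIB at low MOI, then washed and plated with compounds in RPMI + 50% normal human serum, 0.4% DMSO final. Green cells counted at 24 and 48 h; R0 = 48 h/24 h ratio, inhibition normalized to DMSO and triple-drug control; IC50 from 4-parameter fit.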

| Compound | IC50 |
| --- | --- |
| C[C@H]1CNC[C@H](CCc2c(F)cccc2NC(=O)[C@@H](N)[C@@H](c2ccc(F)cc2)c2cc(F)cc(F)c2)N1S(=O)(=O)c1ccc(OC(F)(F)F)cc1 [Example 214, (βS)-β-(3,5-difluorophenyl)-4-fluoro-N-(3-fluoro-2-{2-[(2S,6S)-6-methyl-1-{[4-(trifluoromethoxy)phenyl]sulfonyl}piperazin-2-yl]ethyl}phenyl)-L-phenylalaninamide] | 44 nM |
| COC(=O)N[C@H](C(=O)Nc1cccc(F)c1CC[C@H]1CNCCN1S(=O)(=O)c1ccccc1)[C@H](CCC1CCOCC1)c1ccc(Cl)c(F)c1 [Example 73, (βR)-4-chloro-3-fluoro-N-(3-fluoro-2-{2-[(2S)-1-(phenylsulfonyl)piperazin-2-yl]ethyl}phenyl)-Nα-(methoxycarbonyl)-β-[2-(tetrahydro-2H-pyran-4-yl)ethyl]-L-phenylalaninamide] | 7.6 nM |
| C[C@H]1CNC[C@H](CCc2c(F)cccc2NC(=O)[C@@H](N)[C@@H](c2ccc(F)cc2)c2cc(F)cc(F)c2)N1S(C)(=O)=O [Example 258, (βS)-β-(3,5-difluorophenyl)-4-fluoro-N-(3-fluoro-2-{2-[(2S,6S)-6-methyl-1-(methylsulfonyl)piperazin-2-yl]ethyl}phenyl)-L-phenylalaninamide] | 31 nM |
| N[C@H](C(=O)Nc1cccc(F)c1CC[C@H]1CNCC2(CC2)N1C(=O)COc1ccccc1)C(c1ccc(F)cc1)c1ccc(F)cc1 [Example 368, (S)-2-amino-N-(3-fluoro-2-(2-((S)-4-(2-phenoxyacetyl)-4,7-diazaspiro[2.5]octan-5-yl)ethyl)phenyl)-3,3-bis(4-fluorophenyl)propanamide] | 1500 nM |
| COC(=O)N[C@H](C(=O)Nc1cccc(F)c1CC[C@H]1CNC[C@H](C)N1S(=O)(=O)c1ccc(OC)cc1)[C@@H](c1ccc(Cl)cc1)C(C)C [Example 125, (βR)-4-chloro-N-[3-fluoro-2-(2-{(2S,6S)-1-[(4-methoxyphenyl)sulfonyl]-6-methylpiperazin-2-yl}ethyl)phenyl]-Nα-(methoxycarbonyl)-β-(1-methylethyl)-L-phenylalaninamide] | 18 nM |
| O=C(CC(c1ccc(F)cc1)c1ccc(F)cc1)Nc1cccc(F)c1CC[C@H]1CNCCN1S(=O)(=O)c1ccccc1 [Example 60, 3,3-bis(4-fluorophenyl)-N-(3-fluoro-2-{2-[(2S)-1-(phenylsulfonyl)piperazin-2-yl]ethyl}phenyl)propanamide] | 27 nM |
| CC[C@H]1CNC[C@H](CCc2c(F)cccc2NC(=O)[C@@H](NC(=O)OC)[C@@H](c2ccc(F)cc2)c2cc(F)cc(F)c2)N1S(C)(=O)=O [Example 269, (βS)-β-(3,5-difluorophenyl)-N-(2-{2-[(2S,6S)-6-ethyl-1-(methylsulfonyl)piperazin-2-yl]ethyl}-3-fluorophenyl)-4-fluoro-Nα-(methoxycarbonyl)-L-phenylalaninamide] | 9.9 nM |
| C[C@@H]1CNC[C@H](CCc2c(F)cncc2NC(=O)[C@@H](N)[C@@H](c2ccc(Cl)cc2)C2CCOCC2)N1S(=O)(=O)c1ccccc1 [Example 280, (βR)-4-chloro-N-(5-fluoro-4-{2-[(2S,6R)-6-methyl-1-(phenylsulfonyl)piperazin-2-yl]ethyl}pyridin-3-yl)-β-(tetrahydro-2H-pyran-4-yl)-L-phenylalaninamide] | 16 nM |
| C[C@H]1CNC[C@H](CCc2c(F)cccc2NC(=O)[C@@H](N)[C@@H](c2ccc(Cl)cc2)c2cc(F)cc(F)c2)N1S(=O)(=O)C1CC1 [Example 199, (βS)-4-chloro-N-(2-{2-[(2S,6S)-1-(cyclopropylsulfonyl)-6-methylpiperazin-2-yl]ethyl}-3-fluorophenyl)-β-(3,5-difluorophenyl)-L-phenylalaninamide] | 20 nM |
| COC(=O)N[C@H](C(=O)N[C@H]1CCC[C@@H]1CC[C@H]1CNCCN1S(=O)(=O)c1ccccc1)C(c1ccc(F)cc1)c1ccc(F)cc1 [Example 350, Methyl ((S)-1,1-bis(4-fluorophenyl)-3-oxo-3-(((1S,2R)-2-(2-((S)-1-(phenylsulfonyl)piperazin-2-yl)ethyl)cyclopentyl)amino)propan-2-yl)carbamate] | 12 nM |
| O=C(CC1CC1)N[C@H](C(=O)Nc1cncc(F)c1CC[C@H]1CNCCN1S(=O)(=O)C1CC1)[C@@H](c1ccc(F)cc1)c1cc(F)cc(F)c1 [Example 82, (βS)-Nα-(cyclopropylacetyl)-N-(4-{2-[(2S)-1-(cyclopropylsulfonyl)piperazin-2-yl]ethyl}-5-fluoropyridin-3-yl)-3,5-difluoro-β-(4-fluorophenyl)-L-phenylalaninamide] | 34 nM |
| C[C@@H]1C[C@H]([C@H](c2ccc(F)cc2)[C@H](N)C(=O)Nc2cccc(F)c2CC[C@H]2CNC[C@@H](C)N2S(=O)(=O)c2ccc(F)cc2)C[C@H](C)O1 [Example 371, (2S,3R)-2-amino-3-((2R,4r,6S)-2,6-dimethyltetrahydro-2H-pyran-4-yl)-N-(3-fluoro-2-(2-((2S,6S)-1-((4-fluorophenyl)sulfonyl)-6-methylpiperazin-2-yl)ethyl)phenyl)-3-(4-fluorophenyl)propanamide] | 9.6 nM |
| COC(=O)N[C@H](C(=O)Nc1cccc(F)c1CC[C@H]1CNC[C@@H](C)N1S(=O)(=O)c1ccccc1)C1(c2cc(F)cc(F)c2)CCOCC1 [Example 285, methyl {(1S)-1-[4-{3,5-difluorophenyl)tetrahydro-2H-pyran-4-yl]-2-[(3-fluoro-2-{2-[(2S,6R)-6-methyl-1-(phenylsulfonyl)piperazin-2-yl]ethyl}phenyl)amino]-2-oxoethyl}carbamate] | 29 nM |
| C[C@@H]1CNC[C@H](CCc2c(F)cccc2NC(=O)[C@@H](N)[C@@H](c2ccc(F)cc2)c2cc(F)cc(F)c2)N1S(=O)(=O)C1CC1 [Example 192, (βS)-N-(2-{2-[(2S,6R)-1-(cyclopropylsulfonyl)-6-methylpiperazin-2-yl]ethyl}-3-fluorophenyl)-β-(3,5-difluorophenyl)-4-fluoro-L-phenylalaninamide] | 36 nM |
| CC[C@H]1CNC[C@H](CCc2c(F)cccc2NC(=O)[C@@H](NC(=O)OC)[C@@H](c2ccc(Cl)cc2)C2CCOCC2)N1S(=O)(=O)c1ccccc1 [Example 268, methyl ((1R,2S)-1-(4-chlorophenyl)-3-((2-(2-((2S,6S)-6-ethyl-1-(phenylsulfonyl)piperazin-2-yl)ethyl)-3-fluorophenyl)amino)-3-oxo-1-(tetrahydro-2H-pyran-4-yl)propan-2-yl) carbamate] | 14 nM |
| O=C(C[C@@H](c1ccc(F)cc1)c1cc(F)cc(F)c1)Nc1cncc(F)c1CC[C@H]1CNCCN1S(=O)(=O)N1CCCC(F)C1 (stereo partly drawn) [Example 333, (3S)-3-(3,5-difluorophenyl)-N-[5-fluoro-4-(2-{(2S)-1-[(3-fluoropiperidin-1-yl)sulfonyl]piperazin-2-yl}ethyl)pyridin-3-yl]-3-(4-fluorophenyl)propanamide] | 64 nM |
| COC(=O)N[C@H](C(=O)Nc1cncc(F)c1CC[C@H]1CNC[C@@H](C)N1S(=O)(=O)c1ccc(OC(F)(F)F)cc1)[C@@H](c1ccc(F)cc1)c1cc(F)cc(F)c1 [Example 247, (βS)-β-(3,5-difluorophenyl)-4-fluoro-N-(5-fluoro-4-{2-[(2S,6R)-6-methyl-1-{[4-(trifluoromethoxy)phenyl]sulfonyl}piperazin-2-yl]ethyl}pyridin-3-yl)-Nα-(methoxycarbonyl)-L-phenylalaninamide] | 77 nM |
| COC(=O)N[C@H](C(=O)Nc1cccc(F)c1CC[C@H]1CNC[C@H](C)N1S(=O)(=O)c1cccc(F)c1)[C@@H](c1ccc(F)cc1)c1cc(F)cc(F)c1 [Example 107, (βS)-β-(3,5-difluorophenyl)-4-fluoro-N-[3-fluoro-2-(2-{(2S,6S)-1-[(3-fluorophenyl)sulfonyl]-6-methylpiperazin-2-yl}ethyl)phenyl]-Nα-(methoxycarbonyl)-L-phenylalaninamide] | 150 nM |
| C[C@@H]1CNC[C@H](CCc2c(F)cncc2NC(=O)[C@@H](N)[C@@H](c2ccc(Cl)cc2)c2cccc(F)c2)N1S(=O)(=O)c1ccccc1 [Example 135, (βS)-4-chloro-N-(5-fluoro-4-{2-[(2S,6R)-6-methyl-1-(phenylsulfonyl)piperazin-2-yl]ethyl}pyridin-3-yl)-β-(3-fluorophenyl)-L-phenylalaninamide] | 23 nM |
| COC(=O)N[C@H](C(=O)Nc1cccc(F)c1CC[C@H]1CNC[C@H](C)N1S(=O)(=O)c1ccccc1)[C@@H](c1ccc(Cl)cc1)c1ccc(OC)nc1 [Example 119, (βS)-4-chloro-N-(3-fluoro-2-{2-[(2S,6S)-6-methyl-1-(phenylsulfonyl)piperazin-2-yl]ethyl}phenyl)-Nα-(methoxycarbonyl)-β-(6-methoxypyridin-3-yl)-L-phenylalaninamide] | 9.1 nM |
| CC1(C)CC([C@H](c2ccc(Cl)cc2)[C@H](N)C(=O)Nc2cccc(F)c2CC[C@H]2CNCCN2S(=O)(=O)c2ccccc2)CCO1 (stereo partly drawn) [Example 74, (βR)-4-chloro-β-(2,2-dimethyltetrahydro-2H-pyran-4-yl)-N-(3-fluoro-2-{2-[(2S)-1-(phenylsulfonyl)piperazin-2-yl]ethyl}phenyl)-L-phenylalaninamide] | 24 nM |
| N[C@H](C(=O)Nc1cccc(F)c1CC[C@H]1CNCCN1S(=O)(=O)c1cc2ccccc2o1)[C@@H](c1ccc(F)cc1)c1cc(F)cc(F)c1 [Example 372, (2S,3S)-2-amino-N-(2-(2-((S)-1-(benzofuran-2-ylsulfonyl)piperazin-2-yl)ethyl)-3-fluorophenyl)-3-(3,5-difluorophenyl)-3-(4-fluorophenyl)propanamide] | 14 nM |
| C[C@H]1CNC[C@H](CCc2c(F)cccc2NC(=O)[C@@H](N)C2(c3cc(F)cc(F)c3)CCOCC2)N1S(=O)(=O)c1ccccc1 [Example 278, (2S)-2-amino-2-[4-(3,5-difluorophenyl)tetrahydro-hydro-2H-pyran-4-yl]-N-(3-fluoro-2-{2-[(2S,6S)-6-methyl-1-(phenylsulfonyl)piperazin-2-yl]ethyl}phenyl) ethanamide] | 140 nM |
